Reference: patent US20260022142A1, “MACROCYCLIC IMMUNOMODULATORS” (Bristol-Myers Squibb Company, priority 2022, published 2026)
pIC50: −log10 of the molar value. Bridge positions count the residues as written; N and C are the ends. Square brackets hold non-standard residues; d marks the D form. Peptide text beside a SMILES is read from it. * marks the point of attachment. ξ: configuration not given here. Phe(4-COOH) = N[C@@H](Cc1ccc(C(=O)O)cc1)C(=O)O; Bip = N[C@@H](Cc1ccc(-c2ccccc2)cc1)C(=O)O; Phe(3-Me) = Cc1cccc(C[C@H](N)C(=O)O)c1; NH(CH2)12COOH = O=C(O)CCCCCCCCCCCCN*; Val(3-OH) = CC(C)(O)[C@H](N)C(=O)O; hArg = N=C(N)NCCCC[C@H](N)C(=O)O; 3Pal = N[C@@H](Cc1cccnc1)C(=O)O; Cha = N[C@@H](CC1CCCCC1)C(=O)O; Cit = NC(=O)NCCC[C@H](N)C(=O)O; Ile(3ξ) = CCC(C)[C@H](N)C(=O)O; Thr(3ξ) = CC(O)[C@H](N)C(=O)O; Carboxymethyl = O=C(O)C*; Orn = NCCC[C@H](N)C(=O)O; Aun = NCCCCCCCCCCC(=O)O; Dab = NCC[C@H](N)C(=O)O; Dap = NC[C@H](N)C(=O)O; AEEA = NCCOCCOCC(=O)O

Target: T1, PD-1/PD-L1 interaction (PE-labeled human PD-L1-Ig binding to Jurkat cell line over-expressing human PD-1) (Homo sapiens, UniProt Q15116)
T1 construct: expressed in transfected cells; host or cells: Jurkat
Assay: Jurkat-PD-1 Cell Binding High-Content Screening Assay (CBA)
Format: cell-based
Conditions: Jurkat cell line over-expressing human PD-1; PE-labeled PD-L1-Ig 20 nM final; read-out: Jurkat hPD1-PDL1 IC50
Outline: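 Read-out is high-content imaging of cell-bound phycoerythrin-tagged PD-L1-Ig on fixed, Hoechst-counterstained Jurkat cells that over-express human PD-1. Compound exposure lasts 2 h at 37° C before the labeled ligand (20 nM final) is added for a further hour.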

T1 sequence (Q15116 25-288): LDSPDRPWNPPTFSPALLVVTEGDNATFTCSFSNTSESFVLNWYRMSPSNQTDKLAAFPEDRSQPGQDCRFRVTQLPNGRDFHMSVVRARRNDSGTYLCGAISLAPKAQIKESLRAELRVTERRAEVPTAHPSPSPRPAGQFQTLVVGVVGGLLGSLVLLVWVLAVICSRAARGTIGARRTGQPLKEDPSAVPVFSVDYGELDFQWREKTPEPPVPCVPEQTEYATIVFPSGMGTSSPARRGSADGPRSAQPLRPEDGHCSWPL

Row | Structure (SMILES) | pIC50
1 | Cc1cccc(C[C@@H]2NC(=O)[C@H](CC(=O)O)NC(=O)[C@H](Cc3ccc(OCC(=O)O)cc3)NC(=O)[C@H](CCN)NC(=O)CSC[C@@H](C(=O)N[C@@H](CCN)C(=O)NCCOCCOCC(=O)NCCOCCOCC(=O)NCCCCCCCCCCCCC(=O)O)NC(=O)[C@H](CO)NC(=O)[C@H](C(C)(C)O)NC(=O)[C@H](CC3CCCCC3)NC(=O)[C@H](Cc3c[nH]cn3)NC(=O)[C@@H](CC(C)C)NC(=O)[C@H](CCCN)NC(=O)[C@H](Cc3ccc(OCC(=O)O)cc3)NC(=O)[C@H](Cc3ccc(-c4ccccc4)cc3)NC(=O)[C@H](Cc3ccc(OCC(=O)O)cc3)NC2=O)c1 [Compound 2873] ({CH2CO}-[Dab]Y(Carboxymethyl)D[Phe(3-Me)]Y(Carboxymethyl)[Bip]Y(Carboxymethyl)[Orn][dL]H[Cha][Val(3-OH)]SC[Dab][AEEA][AEEA]-{NH(CH2)12COOH}; thioether N-14) | 7.46
2 | Cc1cccc(C[C@@H]2NC(=O)[C@H](CC(=O)O)NC(=O)[C@H](Cc3ccc(OCC(=O)O)cc3)NC(=O)[C@H](CCCNC(=N)N)NC(=O)CSC[C@@H](C(=O)N[C@@H](CCN)C(=O)NCCCCCCCCCCC(=O)O)NC(=O)[C@H](C(C)O)NC(=O)[C@H](C(C)C)NC(=O)[C@H](CC3CCCCC3)NC(=O)[C@H](CCN)NC(=O)[C@@H](CC(C)C)NC(=O)[C@H](CCCN)NC(=O)[C@H](CCCN)NC(=O)[C@H](Cc3ccc(-c4ccccc4)cc3)NC(=O)[C@H](C(C)C)NC2=O)c1 (stereo partly drawn) [Compound 3303] ({CH2CO}-RY(Carboxymethyl)D[Phe(3-Me)]V[Bip][Orn][Orn][dL][Dab][Cha]V[Thr(3ξ)]C[Dab][Aun]-OH; thioether N-14) | 7.82
3 | Cc1cccc(C[C@@H]2NC(=O)[C@H](CC(=O)O)NC(=O)[C@H](Cc3ccc(OCC(=O)O)cc3)NC(=O)[C@H](CCCNC(=N)N)NC(=O)CSC[C@@H](C(=O)N[C@@H](CCN)C(=O)NCCCCCCCCCCC(=O)O)NC(=O)[C@H](C(C)O)NC(=O)[C@H](C(C)(C)O)NC(=O)[C@H](CC3CCCCC3)NC(=O)[C@H](CCN)NC(=O)[C@@H](CC(C)C)NC(=O)[C@H](CCCN)NC(=O)[C@H](CCCNC(N)=O)NC(=O)[C@H](Cc3ccc(-c4ccccc4)cc3)NC(=O)[C@H](C(C)C)NC2=O)c1 (stereo partly drawn) [Compound 3512] ({CH2CO}-RY(Carboxymethyl)D[Phe(3-Me)]V[Bip][Cit][Orn][dL][Dab][Cha][Val(3-OH)][Thr(3ξ)]C[Dab][Aun]-OH; thioether N-14) | 7.74
4 | Cc1cccc(C[C@@H]2NC(=O)[C@H](CC(=O)O)NC(=O)[C@H](Cc3ccc(OCC(=O)O)cc3)NC(=O)[C@H](CN)NC(=O)CSC[C@@H](C(=O)N[C@@H](CCN)C(=O)NCCOCCOCC(=O)NCCCCCCCCCCC(=O)O)NC(=O)[C@H](CCCN)NC(=O)[C@H](Cc3ccc(O)cc3)NC(=O)[C@H](CC3CCCCC3)NC(=O)[C@H](CCN)NC(=O)[C@@H](CC(C)C)NC(=O)[C@H](CCCN)NC(=O)[C@H](Cc3ccc(O)cc3)NC(=O)[C@H](Cc3ccc(-c4ccccc4)cc3)NC(=O)[C@H](Cc3ccc(O)cc3)NC2=O)c1 [Compound 2505] ({CH2CO}-[Dap]Y(Carboxymethyl)D[Phe(3-Me)]Y[Bip]Y[Orn][dL][Dab][Cha]Y[Orn]C[Dab][AEEA][Aun]-OH; thioether N-14) | 7.68
5 | Cc1cccc(C[C@@H]2NC(=O)[C@H](CC(=O)O)NC(=O)[C@H](Cc3ccc(OCC(=O)O)cc3)NC(=O)[C@H](C(C)O)NC(=O)CSC[C@@H](C(=O)N[C@H](CC(N)=O)C(=O)NCCCCCCCCCCC(=O)O)NC(=O)[C@H](CCCN)NC(=O)[C@H](C(C)C)NC(=O)[C@H](CC3CCCCC3)NC(=O)[C@H](CCN)NC(=O)[C@@H](CC(C)C)NC(=O)[C@H](CCCN)NC(=O)[C@H](CCCNC(N)=O)NC(=O)[C@H](Cc3ccc(-c4ccccc4)cc3)NC(=O)[C@H](C(C)C)NC2=O)c1 (stereo partly drawn) [Compound 3312] ({CH2CO}-[Thr(3ξ)]Y(Carboxymethyl)D[Phe(3-Me)]V[Bip][Cit][Orn][dL][Dab][Cha]V[Orn]C[dN][Aun]-OH; thioether N-14) | 8.36
6 | Cc1cccc(C[C@@H]2NC(=O)[C@H](CC(=O)O)NC(=O)[C@H](Cc3ccc(OCC(=O)O)cc3)NC(=O)[C@H](CN)NC(=O)CSC[C@@H](C(=O)N[C@@H](CCN)C(=O)NCCOCCOCC(=O)NCCCCCCCCCCC(=O)O)NC(=O)[C@H](CCCN)NC(=O)[C@H](C(C)C)NC(=O)[C@H](CC3CCCCC3)NC(=O)[C@H](CCN)NC(=O)[C@@H](CC(C)C)NC(=O)[C@H](CCCN)NC(=O)[C@H](Cc3cccnc3)NC(=O)[C@H](Cc3ccc(-c4ccccc4)cc3)NC(=O)[C@H](Cc3ccc(O)cc3)NC2=O)c1 [Compound 2055] ({CH2CO}-[Dap]Y(Carboxymethyl)D[Phe(3-Me)]Y[Bip][3Pal][Orn][dL][Dab][Cha]V[Orn]C[Dab][AEEA][Aun]-OH; thioether N-14) | 8.10
7 | Cc1cccc(C[C@@H]2NC(=O)[C@H](CC(=O)O)NC(=O)[C@H](Cc3ccc(OCC(=O)O)cc3)NC(=O)[C@H](CCCNC(=N)N)NC(=O)CSC[C@@H](C(=O)N[C@@H](CCN)C(=O)NCCOCCOCC(=O)NCCCCCCCCCCCCC(=O)O)NC(=O)[C@H](CO)NC(=O)[C@H](C(C)(C)O)NC(=O)[C@H](CC3CCCCC3)NC(=O)[C@H](CCN)NC(=O)[C@@H](CC(C)C)NC(=O)[C@H](CCCN)NC(=O)[C@H](Cc3ccc(OCC(=O)O)cc3)NC(=O)[C@H](Cc3ccc(-c4ccccc4)cc3)NC(=O)[C@H](Cc3ccc(OCC(=O)O)cc3)NC2=O)c1 [Compound 2253] ({CH2CO}-RY(Carboxymethyl)D[Phe(3-Me)]Y(Carboxymethyl)[Bip]Y(Carboxymethyl)[Orn][dL][Dab][Cha][Val(3-OH)]SC[Dab][AEEA]-{NH(CH2)12COOH}; thioether N-14) | 8.04
8 | CCC(C)[C@@H]1NC(=O)[C@H](Cc2ccc(-c3ccccc3)cc2)NC(=O)[C@H](C(C)C)NC(=O)[C@H](Cc2c[nH]c3ccccc23)NC(=O)[C@H](CC(=O)O)NC(=O)[C@H](Cc2ccc(OCC(=O)O)cc2)NC(=O)[C@H](CCCCNC(=N)N)NC(=O)CSC[C@@H](C(=O)NCCOCCOCC(=O)N[C@@H](CCCCN)C(=O)NCCCCCCCCCCC(=O)O)NC(=O)[C@H](CO)NC(=O)[C@H](C(C)C)NC(=O)[C@H](CC2CCCCC2)NC(=O)[C@H](CCN)NC(=O)[C@@H](CC(C)C)NC(=O)[C@H](CCCN)NC1=O (stereo partly drawn) [Compound 3082] ({CH2CO}-[hArg]Y(Carboxymethyl)DWV[Bip][Ile(3ξ)][Orn][dL][Dab][Cha]VSC[AEEA]K[Aun]-OH; thioether N-14) | 7.95

The remaining lines, values ahead:

Row | pIC50 | Structure (SMILES)
9 | 8.43 | COC[C@@H]1NC(=O)CSC[C@@H](C(=O)N[C@@H](CCN)C(=O)NCCOCCOCC(=O)NCCCCCCCCCCC(=O)O)NC(=O)[C@H](CO)NC(=O)[C@H](C(C)(C)O)NC(=O)[C@H](CC2CCCCC2)NC(=O)[C@H](CCN)NC(=O)[C@@H](CC(C)C)NC(=O)[C@H](CCCN)NC(=O)[C@H](Cc2ccc(OCC(=O)O)cc2)NC(=O)[C@H](Cc2ccc(-c3ccccc3)cc2)NC(=O)[C@H](Cc2ccc(OCC(=O)O)cc2)NC(=O)[C@H](Cc2cccc(C)c2)NC(=O)[C@H](CC(=O)O)NC(=O)[C@H](Cc2ccc(C(=O)O)cc2)NC1=O [Compound 2241] ({CH2CO}-S(Me)[Phe(4-COOH)]D[Phe(3-Me)]Y(Carboxymethyl)[Bip]Y(Carboxymethyl)[Orn][dL][Dab][Cha][Val(3-OH)]SC[Dab][AEEA][Aun]-OH; thioether N-14)
10 | 7.99 | Cc1cccc(C[C@@H]2NC(=O)[C@H](CC(=O)O)NC(=O)[C@H](Cc3ccc(OCC(=O)O)cc3)NC(=O)[C@H](CN)NC(=O)CSC[C@@H](C(=O)N[C@@H](CCN)C(=O)NCCOCCOCC(=O)NCCCCCCCCCCC(=O)O)NC(=O)[C@H](CO)NC(=O)[C@H](C(C)(C)O)NC(=O)[C@H](CC3CCCCC3)NC(=O)[C@H](CCN)NC(=O)[C@@H](CC(C)C)NC(=O)[C@H](CCCN)NC(=O)[C@H](Cc3ccc(OCC(=O)O)cc3)NC(=O)[C@H](Cc3ccc(-c4ccccc4)cc3)NC(=O)[C@H](Cc3ccc(OCC(=O)O)cc3)NC2=O)c1 [Compound 2023] ({CH2CO}-[Dap]Y(Carboxymethyl)D[Phe(3-Me)]Y(Carboxymethyl)[Bip]Y(Carboxymethyl)[Orn][dL][Dab][Cha][Val(3-OH)]SC[Dab][AEEA][Aun]-OH; thioether N-14)
11 | 7.99 | Cc1cccc(C[C@@H]2NC(=O)[C@H](CC(=O)O)NC(=O)[C@H](Cc3ccc(OCC(=O)O)cc3)NC(=O)[C@H]([C@@H](C)O)NC(=O)CSC[C@@H](C(=O)N[C@@H](CCN)C(=O)NCCCCCCCCCCC(=O)O)NC(=O)[C@H]([C@@H](C)O)NC(=O)[C@H](C(C)C)NC(=O)[C@H](CC3CCCCC3)NC(=O)[C@H](CCN)NC(=O)[C@@H](CC(C)C)NC(=O)[C@H](CCCN)NC(=O)[C@H](Cc3ccc(OCC(=O)O)cc3)NC(=O)[C@H](Cc3ccc(-c4ccccc4)cc3)NC(=O)[C@H](Cc3ccc(OCC(=O)O)cc3)NC2=O)c1 [Compound 2086] ({CH2CO}-TY(Carboxymethyl)D[Phe(3-Me)]Y(Carboxymethyl)[Bip]Y(Carboxymethyl)[Orn][dL][Dab][Cha]VTC[Dab][Aun]-OH; thioether N-14)
12 | 8.13 | Cc1cccc(C[C@@H]2NC(=O)[C@H](CC(=O)O)NC(=O)[C@H](Cc3ccc(OCC(=O)O)cc3)NC(=O)[C@H](CCN)NC(=O)CSC[C@@H](C(=O)N[C@@H](CCN)C(=O)NCCCCCCCCCCC(=O)O)NC(=O)[C@H](CO)NC(=O)[C@H](C(C)(C)O)NC(=O)[C@H](CC3CCCCC3)NC(=O)[C@H](Cc3cnc[nH]3)NC(=O)[C@@H](CC(C)C)NC(=O)[C@H](CCCN)NC(=O)[C@H](Cc3ccc(OCC(=O)O)cc3)NC(=O)[C@H](Cc3ccc(-c4ccccc4)cc3)NC(=O)[C@H](Cc3ccc(OCC(=O)O)cc3)NC2=O)c1 [Compound 3641] ({CH2CO}-[Dab]Y(Carboxymethyl)D[Phe(3-Me)]Y(Carboxymethyl)[Bip]Y(Carboxymethyl)[Orn][dL]H[Cha][Val(3-OH)]SC[Dab][Aun]-OH; thioether N-14)
